Reference: patent US12247032B2, “Substituted pyrazolo[1,5-a]pyrimidines as inhibitors of JAK kinases” (Genentech, Inc., priority 2019, dated 2025)

What follows are compounds tested against T1, recombinant human JAK1 kinase domain protein (Residues 854-1154) (Homo sapiens, UniProt P23458) (assay: JAK1 biochemical assay (microfluidic mobility shift, peptide phosphorylation)). Details: 25 μM ATP, 1 nM total JAK1; Ki calculated from Ki app (tight-binding, competitive); read-out: Biochem JAK1 Ki.
T1 construct: human JAK1 kinase domain protein (Residues 854-1154); purchased Proteros Biostructures GmbH (Martinsried, Germany); host or cells: insect cells
T1 sequence (P23458 854-1154): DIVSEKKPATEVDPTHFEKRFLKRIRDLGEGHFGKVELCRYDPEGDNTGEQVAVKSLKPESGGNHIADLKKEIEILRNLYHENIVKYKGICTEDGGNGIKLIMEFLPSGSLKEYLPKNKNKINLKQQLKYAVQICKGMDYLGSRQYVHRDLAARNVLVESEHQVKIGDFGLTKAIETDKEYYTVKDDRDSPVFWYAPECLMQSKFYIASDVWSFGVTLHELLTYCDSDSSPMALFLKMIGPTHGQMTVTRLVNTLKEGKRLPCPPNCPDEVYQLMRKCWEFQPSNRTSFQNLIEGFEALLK
Method in brief: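 Insect-cell-expressed human JAK1 (1 nM, residues 854-1154) or JAK2 (0.2 nM, residues 812-1132) phosphorylating 1.5 μM 5-FAM peptide Y-1B with 25 μM ATP, pH 7.2 HEPES, 30 min at 22-23 °C; twelve concentrations up to 1000 nM in duplicate. Mobility-shift % conversion fitted to tight-binding quadratic for Ki^app.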

`O=C(Nc1cn(Cc2nnn(C3CCNC3)n2)nc1-c1cc(OC(F)F)ccc1OC(F)F)c1cnn2cccnc12` (single isomer, unassigned) [Example 27, N-[3-[2,5-bis(difluoromethoxy)phenyl]-1-[(2-pyrrolidin-3-yltetrazol-5-yl)methyl]pyrazol-4-yl]pyrazolo[1,5-a]pyrimidine-3-carboxamide] and `O=C(Nc1cn(Cc2nnn(C3CNC3)n2)nc1-c1cc(OC(F)F)ccc1OC(F)F)c1cnn2cccnc12` [Example 11, N-[1-[[2-(azetidin-3-yl)tetrazol-5-yl]methyl]-3-[2,5-bis(difluoromethoxy)phenyl]pyrazol-4-yl]pyrazolo[1,5-a]pyrimidine-3-carboxamide] are within 1.5-fold of each other in Ki: 0.35 nM for the first, 0.39 nM for the second.

Compared with `O=C(Nc1cn(Cc2nnn(C3CCNC3)n2)nc1-c1cc(OC(F)F)ccc1OC(F)F)c1cnn2cccnc12` (single isomer, unassigned) [Example 28, N-[3-[2,5-bis(difluoromethoxy)phenyl]-1-[(2-pyrrolidin-3-yltetrazol-5-yl)methyl]pyrazol-4-yl]pyrazolo[1,5-a]pyrimidine-3-carboxamide], `O=C(Nc1cn(Cc2nnn(C3CCNCC3)n2)nc1-c1cc(OC(F)F)ccc1OC(F)F)c1cnn2cccnc12` [Example 18, N-[3-[2,5-bis(difluoromethoxy)phenyl]-1-[[2-(4-piperidyl)tetrazol-5-yl]methyl]pyrazol-4-yl]pyrazolo[1,5-a]pyrimidine-3-carboxamide] is 1.7-fold higher in Ki: 0.3 nM for the first, 0.51 nM for the second.

Compared with `CN1CCC(N2CC(n3nnc(Cn4cc(NC(=O)c5cnn6cccnc56)c(-c5cc(OC(F)F)ccc5OC(F)F)n4)n3)C2)C1` (single isomer, unassigned) [Example 72, N-[3-[2,5-bis(difluoromethoxy)phenyl]-1-[[2-[1-(1-methylpyrrolidin-3-yl)azetidin-3-yl]tetrazol-5-yl]methyl]pyrazol-4-yl]pyrazolo[1,5-a]pyrimidine-3-carboxamide], `CN1CC(n2nnc(Cn3cc(NC(=O)c4cnn5cccnc45)c(-c4cc(OC(F)F)ccc4OC(F)F)n3)n2)C1` [Example 10, N-[3-[2,5-bis(difluoromethoxy)phenyl]-1-[[2-(1-methylazetidin-3-yl)tetrazol-5-yl]methyl]pyrazol-4-yl]pyrazolo[1,5-a]pyrimidine-3-carboxamide] is 1.8-fold lower in Ki: 0.61 nM for the first, 0.33 nM for the second. The second binds more tightly here.

`CN1CC(n2nnc(Cn3cc(NC(=O)c4cnn5cccnc45)c(-c4cc(Cl)ccc4OC(F)F)n3)n2)C1` [Example 7, N-[3-[5-chloro-2-(difluoromethoxy)phenyl]-1-[[2-(1-methylazetidin-3-yl)tetrazol-5-yl]methyl]pyrazol-4-yl]pyrazolo[1,5-a]pyrimidine-3-carboxamide] and `O=C(Nc1cn(Cc2nnn(C3CNC3)n2)nc1-c1cc(Cl)ccc1OC(F)F)c1cnn2cccnc12` [Example 8, N-[1-[[2-(azetidin-3-yl)tetrazol-5-yl]methyl]-3-[5-chloro-2-(difluoromethoxy)phenyl]pyrazol-4-yl]pyrazolo[1,5-a]pyrimidine-3-carboxamide] are within 1.5-fold of each other in Ki: 0.42 nM for the first, 0.5 nM for the second.

Going from `O=C(Nc1cn(Cc2nnnn2C2CNC2)nc1-c1cc(OC(F)F)ccc1OC(F)F)c1cnn2cccnc12` [Example 12, N-[1-[[1-(azetidin-3-yl)tetrazol-5-yl]methyl]-3-[2,5-bis(difluoromethoxy)phenyl]pyrazol-4-yl]pyrazolo[1,5-a]pyrimidine-3-carboxamide] to `CN1CCC(n2nnnc2Cn2cc(NC(=O)c3cnn4cccnc34)c(-c3cc(OC(F)F)ccc3OC(F)F)n2)C1` (centres unmarked) [Example 26, N-[3-[2,5-bis(difluoromethoxy)phenyl]-1-[[1-(1-methylpyrrolidin-3-yl)tetrazol-5-yl]methyl]pyrazol-4-yl]pyrazolo[1,5-a]pyrimidine-3-carboxamide], the Ki rises from 0.21 nM to 0.51 nM (2.4-fold). The first binds more tightly here.

Going from `NCCn1nnc(Cn2cc(NC(=O)c3cnn4cccnc34)c(-c3cc(OC(F)F)ccc3OC(F)F)n2)n1` [Example 13, N-[1-[[2-(2-aminoethyl)tetrazol-5-yl]methyl]-3-[2,5-bis(difluoromethoxy)phenyl]pyrazol-4-yl]pyrazolo[1,5-a]pyrimidine-3-carboxamide] to `CNCCn1nnc(Cn2cc(NC(=O)c3cnn4cccnc34)c(-c3cc(OC(F)F)ccc3OC(F)F)n2)n1` [Example 20, N-[3-[2,5-bis(difluoromethoxy)phenyl]-1-[[2-[2-(methylamino)ethyl]tetrazol-5-yl]methyl]pyrazol-4-yl]pyrazolo[1,5-a]pyrimidine-3-carboxamide], the Ki rises from 0.25 nM to 0.57 nM (2.3-fold). The first binds more tightly here.

`NCCn1nnnc1Cn1cc(NC(=O)c2cnn3cccnc23)c(-c2cc(OC(F)F)ccc2OC(F)F)n1` [Example 14, N-[1-[[1-(2-aminoethyl)tetrazol-5-yl]methyl]-3-[2,5-bis(difluoromethoxy)phenyl]pyrazol-4-yl]pyrazolo[1,5-a]pyrimidine-3-carboxamide] and `CNCCn1nnnc1Cn1cc(NC(=O)c2cnn3cccnc23)c(-c2cc(OC(F)F)ccc2OC(F)F)n1` [Example 19, N-[3-[2,5-bis(difluoromethoxy)phenyl]-1-[[1-[2-(methylamino)ethyl]tetrazol-5-yl]methyl]pyrazol-4-yl]pyrazolo[1,5-a]pyrimidine-3-carboxamide] are within 1.5-fold of each other in Ki: 0.26 nM for the first, 0.22 nM for the second.

Going from `CN1CC(n2nnnc2Cn2cc(NC(=O)c3cnn4cccnc34)c(-c3cc(Cl)ccc3OC(F)F)n2)C1` [Example 15, N-[3-[5-chloro-2-(difluoromethoxy)phenyl]-1-[[1-(1-methylazetidin-3-yl)tetrazol-5-yl]methyl]pyrazol-4-yl]pyrazolo[1,5-a]pyrimidine-3-carboxamide] to `CN1CC(n2nnc(Cn3cc(NC(=O)c4cnn5cccnc45)c(-c4cc(C5CC5)ccc4OC(F)F)n3)n2)C1` [Example 23, N-[3-[5-cyclopropyl-2-(difluoromethoxy)phenyl]-1-[[2-(1-methylazetidin-3-yl)tetrazol-5-yl]methyl]pyrazol-4-yl]pyrazolo[1,5-a]pyrimidine-3-carboxamide], the Ki rises from 0.22 nM to 0.42 nM (1.9-fold).

`CN(C)CCn1nnc(Cn2cc(NC(=O)c3cnn4cccnc34)c(-c3cc(OC(F)F)ccc3OC(F)F)n2)n1` [Example 16, N-[3-[2,5-bis(difluoromethoxy)phenyl]-1-[[2-[2-(dimethylamino)ethyl]tetrazol-5-yl]methyl]pyrazol-4-yl]pyrazolo[1,5-a]pyrimidine-3-carboxamide] and `CN(C)CCn1nnnc1Cn1cc(NC(=O)c2cnn3cccnc23)c(-c2cc(OC(F)F)ccc2OC(F)F)n1` [Example 17, N-[3-[2,5-bis(difluoromethoxy)phenyl]-1-[[1-[2-(dimethylamino)ethyl]tetrazol-5-yl]methyl]pyrazol-4-yl]pyrazolo[1,5-a]pyrimidine-3-carboxamide] are within 1.5-fold of each other in Ki: 0.45 nM for the first, 0.43 nM for the second.

`CN(C)CCN1CC(n2nnc(Cn3cc(NC(=O)c4cnn5cccnc45)c(-c4cc(OC(F)F)ccc4OC(F)F)n3)n2)C1` [Example 21, N-[3-[2,5-bis(difluoromethoxy)phenyl]-1-[[2-[1-[2-(dimethylamino)ethyl]azetidin-3-yl]tetrazol-5-yl]methyl]pyrazol-4-yl]pyrazolo[1,5-a]pyrimidine-3-carboxamide] and `CN1CCC(n2nnc(Cn3cc(NC(=O)c4cnn5cccnc45)c(-c4cc(OC(F)F)ccc4OC(F)F)n3)n2)CC1` [Example 22] are within 1.5-fold of each other in Ki: 0.4 nM for the first, 0.44 nM for the second.
